Experimental data: US12258327B2, “5-membered heteroaryl-containing aminopyridine compounds as EGFR inhibitors” (YUHAN CORPORATION, priority 2021, dated 2025)
Where two headings read alike, the source gives them in different places.

Key:
[1] = biological target: EGFR del19/C797S (Homo sapiens, UniProt P00533, C797S/DEL746-750); experiment: Biochemical EGFR kinase assay (Lance Ultra TR-FRET), double mutant del19/C797S
How it was run: (§1)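 Kinase activity is measured by TR-FRET phosphopeptide detection. Compounds span 0.003 μM to 10 μM; the 1 h reaction at room temperature is quenched with EDTA, then labelled antibody (2 nM) is incubated 60 min before reading.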

[2] = biological target: EGFR L858R/T790M/C797S (Homo sapiens, UniProt P00533, C797S/L858R/T790M); experiment: Biochemical EGFR kinase assay (Lance Ultra TR-FRET), triple mutant L858R/T790M/C797S
How it was run: as §1

[3] = biological target: EGFR L858R/C797S (Homo sapiens, UniProt P00533, C797S/L858R); experiment: Biochemical EGFR kinase assay (Lance Ultra TR-FRET), double mutant L858R/C797S
How it was run: as §1

[4] = biological target: EGFR del19/T790M/C797S (Homo sapiens, UniProt P00533, C797S/DEL746-750/T790M); experiment: Biochemical EGFR kinase assay (Lance Ultra TR-FRET), triple mutant del19/T790M/C797S
How it was run: as §1

[5] = biological target: EGFR wildtype (WT) (Homo sapiens, UniProt P00533); experiment: Biochemical EGFR kinase assay (Lance Ultra TR-FRET), wildtype
How it was run: as §1

[6] = IC50 del19/C797S (nM) 100 μM ATP, 100 μM ATP
[7] = IC50 L858R/T790M/C797S (nM) 100 μM ATP, 100 μM ATP
[8] = IC50 L858R/C797S (nM) 100 μM ATP, 100 μM ATP
[9] = IC50 del19/T790M/C797S (nM) 100 μM ATP, 100 μM ATP
[10] = IC50 WT (nM) 100 μM ATP, 100 μM ATP
[11] = Km ATP, read-out: IC50 L858R/T790M/C797S (nM) Km ATP
[12] = Km ATP, read-out: IC50 del19/T790M/C797S (nM) Km ATP
[13] = Km ATP, read-out: IC50 WT (nM) Km ATP
[14] = Km ATP, read-out: IC50 del19/C797S (nM) Km ATP
[15] = Km ATP, read-out: IC50 L858R/C797S (nM) Km ATP

EGFR del19/T790M/C797S, sequence (P00533 with tags, fused parts or gaps DEL746-750/T790M/C797S): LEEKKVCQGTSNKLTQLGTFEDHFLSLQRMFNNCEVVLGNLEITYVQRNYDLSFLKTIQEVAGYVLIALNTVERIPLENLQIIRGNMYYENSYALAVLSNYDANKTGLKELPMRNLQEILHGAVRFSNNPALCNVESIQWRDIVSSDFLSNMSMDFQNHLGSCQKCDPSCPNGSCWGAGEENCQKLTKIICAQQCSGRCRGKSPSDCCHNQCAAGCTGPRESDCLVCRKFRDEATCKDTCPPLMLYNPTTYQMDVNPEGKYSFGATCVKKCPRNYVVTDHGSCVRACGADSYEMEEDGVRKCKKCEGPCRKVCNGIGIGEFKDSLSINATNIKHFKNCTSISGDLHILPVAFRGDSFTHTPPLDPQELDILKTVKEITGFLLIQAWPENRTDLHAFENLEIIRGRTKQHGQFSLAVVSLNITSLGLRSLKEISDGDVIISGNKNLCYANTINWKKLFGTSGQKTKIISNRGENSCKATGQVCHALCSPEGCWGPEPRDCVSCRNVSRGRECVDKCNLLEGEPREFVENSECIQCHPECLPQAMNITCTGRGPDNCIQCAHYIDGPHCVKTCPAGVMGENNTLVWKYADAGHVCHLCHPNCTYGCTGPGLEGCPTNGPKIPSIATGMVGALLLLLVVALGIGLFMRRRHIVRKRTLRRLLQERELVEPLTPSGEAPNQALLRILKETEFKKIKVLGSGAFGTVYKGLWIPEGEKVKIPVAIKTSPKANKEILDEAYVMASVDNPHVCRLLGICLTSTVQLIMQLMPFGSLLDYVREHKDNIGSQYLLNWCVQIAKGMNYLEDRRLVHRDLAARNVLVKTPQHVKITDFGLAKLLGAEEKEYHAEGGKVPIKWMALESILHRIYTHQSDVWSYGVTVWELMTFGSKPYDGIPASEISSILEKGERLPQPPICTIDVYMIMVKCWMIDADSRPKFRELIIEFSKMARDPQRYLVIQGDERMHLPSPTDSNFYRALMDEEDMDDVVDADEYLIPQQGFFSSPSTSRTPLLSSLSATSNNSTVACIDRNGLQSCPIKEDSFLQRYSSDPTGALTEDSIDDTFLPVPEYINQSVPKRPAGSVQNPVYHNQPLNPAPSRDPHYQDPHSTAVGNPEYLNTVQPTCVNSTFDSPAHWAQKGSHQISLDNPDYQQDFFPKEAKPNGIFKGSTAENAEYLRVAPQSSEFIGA
EGFR L858R/T790M/C797S, sequence (P00533 25-1210 T790M/C797S/L858R): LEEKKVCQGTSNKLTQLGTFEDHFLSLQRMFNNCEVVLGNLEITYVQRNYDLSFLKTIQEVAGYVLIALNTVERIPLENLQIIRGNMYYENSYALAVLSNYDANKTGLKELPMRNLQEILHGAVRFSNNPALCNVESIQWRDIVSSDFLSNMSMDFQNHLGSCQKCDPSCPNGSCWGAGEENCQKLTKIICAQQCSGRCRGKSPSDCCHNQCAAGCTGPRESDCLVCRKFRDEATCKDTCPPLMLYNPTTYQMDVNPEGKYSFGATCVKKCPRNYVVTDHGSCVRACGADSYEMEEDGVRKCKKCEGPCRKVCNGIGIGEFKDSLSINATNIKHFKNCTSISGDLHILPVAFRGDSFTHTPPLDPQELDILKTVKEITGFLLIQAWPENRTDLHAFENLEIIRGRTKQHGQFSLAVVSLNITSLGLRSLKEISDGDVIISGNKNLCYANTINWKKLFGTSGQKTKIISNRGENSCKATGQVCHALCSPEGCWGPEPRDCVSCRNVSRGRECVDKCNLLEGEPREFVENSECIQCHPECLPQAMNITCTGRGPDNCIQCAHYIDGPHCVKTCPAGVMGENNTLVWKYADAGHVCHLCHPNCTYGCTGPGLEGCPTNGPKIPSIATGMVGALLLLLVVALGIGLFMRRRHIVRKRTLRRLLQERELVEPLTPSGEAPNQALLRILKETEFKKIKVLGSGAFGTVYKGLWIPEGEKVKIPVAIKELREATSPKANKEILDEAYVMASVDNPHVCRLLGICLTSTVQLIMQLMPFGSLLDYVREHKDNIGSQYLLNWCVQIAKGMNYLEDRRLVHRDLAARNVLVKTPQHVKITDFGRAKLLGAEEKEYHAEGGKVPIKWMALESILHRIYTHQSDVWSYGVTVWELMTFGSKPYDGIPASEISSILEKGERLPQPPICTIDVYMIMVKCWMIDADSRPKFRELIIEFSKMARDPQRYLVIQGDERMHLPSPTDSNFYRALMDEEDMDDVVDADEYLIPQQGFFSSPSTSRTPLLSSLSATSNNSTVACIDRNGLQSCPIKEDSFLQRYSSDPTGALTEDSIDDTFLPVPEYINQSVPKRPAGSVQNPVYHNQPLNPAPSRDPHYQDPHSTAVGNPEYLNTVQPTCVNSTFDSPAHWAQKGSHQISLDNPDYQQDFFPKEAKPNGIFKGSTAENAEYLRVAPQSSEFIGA
EGFR del19/C797S, sequence (P00533 with tags, fused parts or gaps DEL746-750/C797S): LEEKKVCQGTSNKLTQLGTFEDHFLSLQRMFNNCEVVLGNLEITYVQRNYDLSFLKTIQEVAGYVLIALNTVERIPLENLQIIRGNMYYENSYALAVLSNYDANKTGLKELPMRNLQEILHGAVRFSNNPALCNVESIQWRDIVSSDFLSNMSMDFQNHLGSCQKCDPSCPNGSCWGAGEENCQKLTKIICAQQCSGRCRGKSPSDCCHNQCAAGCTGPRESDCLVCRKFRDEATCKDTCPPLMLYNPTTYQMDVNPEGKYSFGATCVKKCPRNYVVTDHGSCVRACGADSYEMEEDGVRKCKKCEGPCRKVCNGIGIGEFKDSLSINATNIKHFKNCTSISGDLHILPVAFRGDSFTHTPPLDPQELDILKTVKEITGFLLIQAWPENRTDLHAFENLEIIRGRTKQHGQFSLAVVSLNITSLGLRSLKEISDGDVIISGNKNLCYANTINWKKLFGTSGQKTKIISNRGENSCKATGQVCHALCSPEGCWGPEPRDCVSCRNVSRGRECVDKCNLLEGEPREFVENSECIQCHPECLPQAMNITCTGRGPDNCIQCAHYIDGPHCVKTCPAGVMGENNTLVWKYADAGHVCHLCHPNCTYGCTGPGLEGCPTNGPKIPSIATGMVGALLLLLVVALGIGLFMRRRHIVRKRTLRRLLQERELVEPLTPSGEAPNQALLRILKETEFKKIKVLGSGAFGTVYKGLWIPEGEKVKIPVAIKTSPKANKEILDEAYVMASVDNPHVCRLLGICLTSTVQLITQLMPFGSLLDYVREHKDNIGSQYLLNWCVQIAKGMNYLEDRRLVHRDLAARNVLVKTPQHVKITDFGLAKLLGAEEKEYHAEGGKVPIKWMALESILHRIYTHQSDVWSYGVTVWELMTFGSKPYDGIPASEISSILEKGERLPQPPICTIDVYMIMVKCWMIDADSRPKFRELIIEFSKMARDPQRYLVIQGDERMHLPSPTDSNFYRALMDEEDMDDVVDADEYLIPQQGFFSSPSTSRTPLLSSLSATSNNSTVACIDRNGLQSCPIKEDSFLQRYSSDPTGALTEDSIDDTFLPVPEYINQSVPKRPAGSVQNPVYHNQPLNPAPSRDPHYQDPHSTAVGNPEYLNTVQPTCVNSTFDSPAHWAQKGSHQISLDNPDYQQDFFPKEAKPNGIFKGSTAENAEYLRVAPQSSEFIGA
EGFR wildtype (WT), sequence (P00533 25-1210): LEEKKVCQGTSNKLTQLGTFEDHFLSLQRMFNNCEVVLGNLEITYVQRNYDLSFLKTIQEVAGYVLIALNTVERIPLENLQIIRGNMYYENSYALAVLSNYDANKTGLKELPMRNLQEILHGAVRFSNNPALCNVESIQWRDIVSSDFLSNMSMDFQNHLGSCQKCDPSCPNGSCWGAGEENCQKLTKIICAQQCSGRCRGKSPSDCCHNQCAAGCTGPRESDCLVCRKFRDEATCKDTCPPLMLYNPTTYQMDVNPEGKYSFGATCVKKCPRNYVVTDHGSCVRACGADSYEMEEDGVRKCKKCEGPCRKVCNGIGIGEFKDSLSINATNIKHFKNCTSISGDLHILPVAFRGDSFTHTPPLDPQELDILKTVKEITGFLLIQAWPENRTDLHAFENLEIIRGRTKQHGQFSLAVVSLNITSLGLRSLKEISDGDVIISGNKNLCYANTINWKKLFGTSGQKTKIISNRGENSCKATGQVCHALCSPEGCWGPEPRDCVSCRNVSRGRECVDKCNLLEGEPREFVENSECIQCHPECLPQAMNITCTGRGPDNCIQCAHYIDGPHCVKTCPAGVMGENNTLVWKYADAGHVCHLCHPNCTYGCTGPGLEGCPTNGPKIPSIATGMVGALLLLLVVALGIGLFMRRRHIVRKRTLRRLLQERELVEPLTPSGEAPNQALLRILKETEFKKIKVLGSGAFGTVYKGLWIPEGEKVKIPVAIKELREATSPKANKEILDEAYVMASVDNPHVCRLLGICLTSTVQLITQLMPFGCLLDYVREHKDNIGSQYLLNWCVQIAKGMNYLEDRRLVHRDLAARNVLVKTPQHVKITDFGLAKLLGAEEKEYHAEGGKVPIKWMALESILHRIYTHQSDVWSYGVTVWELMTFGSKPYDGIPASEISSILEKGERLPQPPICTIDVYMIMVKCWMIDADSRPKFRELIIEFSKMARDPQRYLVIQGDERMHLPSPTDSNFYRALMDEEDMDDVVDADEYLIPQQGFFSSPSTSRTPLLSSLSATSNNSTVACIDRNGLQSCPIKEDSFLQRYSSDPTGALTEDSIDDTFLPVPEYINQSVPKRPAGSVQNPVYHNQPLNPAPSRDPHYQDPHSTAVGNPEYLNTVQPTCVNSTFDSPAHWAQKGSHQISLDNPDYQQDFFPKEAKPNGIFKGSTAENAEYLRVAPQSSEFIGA

IC50 [1, 6]	IC50 [2, 7]	IC50 [3, 8]	IC50 [4, 9]	IC50 [5, 10]	IC50 [2, 11]	IC50 [4, 12]	IC50 [5, 13]	IC50 [1, 14]	IC50 [3, 15]	SMILES
1.1 nM	0.2 nM	8.3 nM	0.1 nM	2970 nM	–	–	–	–	–	CN(C)C[C@H]1C[C@@H](CNc2cc(Nc3ccnc(-c4cnn(S(=O)(=O)C5CC5)c4)n3)ncc2-c2ccn(C(F)F)n2)C1 [Example 203, N^2-(2-(1-(Cyclopropylsulfonyl)-1H-pyrazol-4-yl)pyrimidin-4-yl)-5-(1-(difluoromethyl)-1H-pyrazol-3-yl)-N^4-(((1s,3s)-3-((dimethylamino)methyl)cyclobutyl)methyl)pyridine-2,4-diamine]
4 nM	0.8 nM	36.1 nM	0.9 nM	> 10000 nM	0.4 nM	0.9 nM	9.5 nM	–	–	CN(CC(F)F)C(=O)[C@H]1CC[C@@H](Nc2cc(Nc3ccnc(-c4cnn(S(=O)(=O)C5CC5)c4)n3)ncc2-c2ccn(C(F)F)n2)CC1 [Example 204, (1s,4s)-4-((2-((2-(1-(Cyclopropylsulfonyl)-1H-pyrazol-4-yl)pyrimidin-4-yl)amino)-5-(1-(difluoromethyl)-1H-pyrazol-3-yl)pyridin-4-yl)amino)-N-(2,2-difluoroethyl)-N-methylcyclohexane-1-carboxamide]
1 nM	0.4 nM	10.1 nM	0.6 nM	3960 nM	0.2 nM	0.3 nM	4.4 nM	0.6 nM	0.4 nM	CN(C)C(=O)C[C@H]1CC[C@@H](Nc2cc(Nc3ccnc(-c4cnn(S(=O)(=O)C5CC5)c4)n3)ncc2-c2ccn(C(F)F)n2)CC1 [Example 205, 2-((1s,4s)-4-((2-((2-(1-(Cyclopropylsulfonyl)-1H-pyrazol-4-yl)pyrimidin-4-yl)amino)-5-(1-(difluoromethyl)-1H-pyrazol-3-yl)pyridin-4-yl)amino)cyclohexyl)-N,N-dimethylacetamide]
26.9 nM	13.8 nM	206 nM	22.1 nM	> 10000 nM	–	–	–	–	–	CN(CC(F)F)C[C@H]1CC[C@@H](Nc2cc(Nc3ccnc(-c4cnn(S(=O)(=O)C5CC5)c4)n3)ncc2-c2ccn(C(F)F)n2)CC1 [Example 206, N^2-(2-(1-(Cyclopropylsulfonyl)-1H-pyrazol-4-yl)pyrimidin-4-yl)-N^4-((1s,4s)-4-(((2,2-difluoroethyl)(methyl)amino)methyl)cyclohexyl)-5-(1-(difluoromethyl)-1H-pyrazol-3-yl)pyridine-2,4-diamine]
0.2 nM	0.1 nM	0.2 nM	0.3 nM	128 nM	0.1 nM	0.3 nM	0.6 nM	0.2 nM	0.2 nM	O=S(=O)(C1CC1)n1cc(-c2nccc(Nc3cc(N[C@H]4CC[C@@H](CN5CCC5)CC4)c(-c4ccn(C(F)F)n4)cn3)n2)cn1 [Example 208, N^4-((1s,4s)-4-(Azetidin-1-ylmethyl)cyclohexyl)-N^2-(2-(1-(cyclopropylsulfonyl)-1H-pyrazol-4-yl)pyrimidin-4-yl)-5-(1-(difluoromethyl)-1H-pyrazol-3-yl)pyridine-2,4-diamine]
–	–	–	–	–	0.1 nM	0.3 nM	13.1 nM	6.4 nM	4.8 nM	CN(C)C[C@H]1C[C@H](CNc2cc(Nc3ccnc(-c4cnn(S(=O)(=O)C5CC5)c4)n3)ncc2-c2ccn(C(F)F)n2)C1 [Example 209, N^2-(2-(1-(Cyclopropylsulfonyl)-1H-pyrazol-4-yl)pyrimidin-4-yl)-5-(1-(difluoromethyl)-1H-pyrazol-3-yl)-N^4-(((1r,3r)-3-((dimethylamino)methyl)cyclobutyl)methyl)pyridine-2,4-diamine]
–	–	–	–	–	1.3 nM	1.7 nM	90.5 nM	70.5 nM	6.5 nM	CCC(C)Nc1cc(Nc2ccnc(-c3cnn(S(=O)(=O)C4CC4)c3)n2)ncc1-c1ccn(C(F)F)n1 (stereo not drawn) [Example 210, N^4-(sec-Butyl)-N^2-(2-(1-(cyclopropylsulfonyl)-1H-pyrazol-4-yl)pyrimidin-4-yl)-5-(1-(difluoromethyl)-1H-pyrazol-3-yl)pyridine-2,4-diamine]
–	–	–	–	–	0.3 nM	0.6 nM	0.3 nM	0.4 nM	0.1 nM	CN(C)CC[C@H]1CC[C@@H](Nc2cc(Nc3ccnc(-c4cnn(S(=O)(=O)C5CC5)c4)n3)ncc2-c2ccn(C(F)F)n2)CC1 [Example 211, N^2-(2-(1-(Cyclopropylsulfonyl)-1H-pyrazol-4-yl)pyrimidin-4-yl)-5-(1-(difluoromethyl)-1H-pyrazol-3-yl)-N^4-((1s,4s)-4-(2-(dimethylamino)ethyl)cyclohexyl)pyridine-2,4-diamine]
–	–	–	–	–	2.3 nM	2.1 nM	294 nM	72 nM	38.5 nM	C[C@H](CCF)Nc1cc(Nc2ccnc(-c3cnn(S(=O)(=O)C4CC4)c3)n2)ncc1-c1ccn(C(F)F)n1 [Example 212, (R)—N^2-(2-(1-(Cyclopropylsulfonyl)-1H-pyrazol-4-yl)pyrimidin-4-yl)-5-(1-(difluoromethyl)-1H-pyrazol-3-yl)-N^4-(4-fluorobutan-2-yl)pyridine-2,4-diamine]
–	–	–	–	–	2.7 nM	3.4 nM	488 nM	370 nM	123 nM	CC(Nc1cc(Nc2ccnc(-c3cnn(S(=O)(=O)C4CC4)c3)n2)ncc1-c1ccn(C(F)F)n1)C(F)F (stereo not drawn) [Example 213, N^2-(2-(1-(Cyclopropylsulfonyl)-1H-pyrazol-4-yl)pyrimidin-4-yl)-5-(1-(difluoromethyl)-1H-pyrazol-3-yl)-N^4-(1,1-difluoropropan-2-yl)pyridine-2,4-diamine]
–	–	–	–	–	3.1 nM	5.2 nM	45.2 nM	9.9 nM	3.4 nM	O=S(=O)(C1CC1)n1cc(-c2nccc(Nc3cc(NC4CCC(F)CC4)c(-c4ccn(C(F)F)n4)cn3)n2)cn1 (stereo not drawn) [Example 214, N^2-(2-(1-(Cyclopropylsulfonyl)-1H-pyrazol-4-yl)pyrimidin-4-yl)-5-(1-(difluoromethyl)-1H-pyrazol-3-yl)-N^4-(4-fluorocyclohexyl)pyridine-2,4-diamine]
–	–	–	–	–	8.6 nM	11.9 nM	434 nM	70.2 nM	32.5 nM	O=S(=O)(C1CC1)n1cc(-c2nccc(Nc3cc(NC4CCC(F)(F)CC4)c(-c4ccn(C(F)F)n4)cn3)n2)cn1 [Example 215, N^2-(2-(1-(Cyclopropylsulfonyl)-1H-pyrazol-4-yl)pyrimidin-4-yl)-N^4-(4,4-difluorocyclohexyl)-5-(1-(difluoromethyl)-1H-pyrazol-3-yl)pyridine-2,4-diamine]
–	–	–	–	–	9.1 nM	25.9 nM	276 nM	119 nM	26.5 nM	O=S(=O)(C1CC1)n1cc(-c2nccc(Nc3cc(NC4CCC(CCF)CC4)c(-c4ccn(C(F)F)n4)cn3)n2)cn1 (stereo not drawn) [Example 216, N^2-(2-(1-(Cyclopropylsulfonyl)-1H-pyrazol-4-yl)pyrimidin-4-yl)-5-(1-(difluoromethyl)-1H-pyrazol-3-yl)-N^4-(4-(2-fluoroethyl)cyclohexyl)pyridine-2,4-diamine]
–	–	–	–	–	0.4 nM	0.2 nM	454 nM	28.7 nM	23.7 nM	O=S(=O)(C1CC1)n1cc(-c2nccc(Nc3cc(NC4CCN(CCF)CC4)c(-c4ccn(C(F)F)n4)cn3)n2)cn1 [Example 217, N^2-(2-(1-(Cyclopropylsulfonyl)-1H-pyrazol-4-yl)pyrimidin-4-yl)-5-(1-(difluoromethyl)-1H-pyrazol-3-yl)-N^4-(1-(2-fluoroethyl)piperidin-4-yl)pyridine-2,4-diamine]
–	–	–	–	–	0.8 nM	0.5 nM	233 nM	43.9 nM	30.7 nM	O=S(=O)(C1CC1)n1cc(-c2nccc(Nc3cc(NC4CCCN(CCF)C4)c(-c4ccn(C(F)F)n4)cn3)n2)cn1 (stereo not drawn) [Example 218, N^2-(2-(1-(Cyclopropylsulfonyl)-1H-pyrazol-4-yl)pyrimidin-4-yl)-5-(1-(difluoromethyl)-1H-pyrazol-3-yl)-N^4-(1-(2-fluoroethyl)piperidin-3-yl)pyridine-2,4-diamine]
–	–	–	–	–	0.5 nM	0.8 nM	8630 nM	134 nM	21.4 nM	O=S(=O)(C1CC1)n1cc(-c2nccc(Nc3cc(NC4CCN(CC(F)F)CC4)c(-c4ccn(C(F)F)n4)cn3)n2)cn1 [Example 219, N^2-(2-(1-(Cyclopropylsulfonyl)-1H-pyrazol-4-yl)pyrimidin-4-yl)-N^4-(1-(2,2-difluoroethyl)piperidin-4-yl)-5-(1-(difluoromethyl)-1H-pyrazol-3-yl)pyridine-2,4-diamine]
